Test results: patent US10294202B2, “Pyrrolidinones as herbicides” (FMC Corporation, priority 2013, dated 2019)
Read-outs that look alike come from different tables or passages of the source.

How the values were obtained:
[1] = system: rice; assay: Test C flooded paddy test; format: in vivo, Oryza sativa; conditions: Flood
How it was run: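 Visual ratings from 0, no effect, to 100, complete control, were made against untreated controls after 13–15 greenhouse days. Compounds had gone straight into paddy water 3 cm above the soil, kept at that depth, on 2-leaf-stage plants.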

[2] = system: crabgrass, large; assay: Test A pre-/postemergence herbicide test; format: in vivo, Digitaria sanguinalis; conditions: for pest or weed control at 125 g/ha / pest or weed control at 500 g/ha: Digitaria sanguinalis, 240 h, read-out: Plant response rating, Crabgrass, Large; for Crabgrass, Large plant response rating: Preemergence, visual rating on 0 to 100 scale (0 no effect, 100 complete control)
How it was run: (§1)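 Formulated compound (non-phytotoxic solvent, surfactant) sprayed pre- onto soil of seeded loam/sand pots or post- onto seedlings at 1–2 leaves; ~10 d greenhouse; 0–100 visual control rating versus untreated.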

[3] = system: kochia; assay: Test A pre-/postemergence herbicide test; format: in vivo, Kochia scoparia
How it was run: as §1

[4] = 31 g ai/ha, scale of 0 to 100 where 0 is no effect and 100 is complete control, 13 to 15 days
[5] = 62 g ai/ha, scale of 0 to 100 where 0 is no effect and 100 is complete control, 13 to 15 days
[6] = 125 g ai/ha, scale of 0 to 100 where 0 is no effect and 100 is complete control, 13 to 15 days
[7] = post-emergence, Postemergence, 125 g ai/ha, 0 to 100 scale, 0 no effect, 100 complete control
[8] = post-emergence, Postemergence, 500 g ai/ha, 0 to 100 scale (0 no effect, 100 complete control)
[9] = pre-emergence, preemergence, 500 g ai/ha, 0 to 100 scale
[10] = Postemergence, 125 g ai/ha, 0 to 100 scale, 0 no effect, 100 complete control
[11] = Postemergence, 500 g ai/ha, 0 to 100 scale (0 no effect, 100 complete control)
[12] = preemergence, 500 g ai/ha, 0 to 100 scale
[13] = Postemergence, 125 g ai/ha, visual rating on 0 to 100 scale (0 no effect, 100 complete control), approx. 10 days
[14] = Preemergence, 125 g ai/ha, 0 to 100 scale where 0 is no effect and 100 is complete control
[15] = Preemergence, 500 g ai/ha, visual rating on 0 to 100 scale (0 no effect, 100 complete control)
[16] = Postemergence, 125 g ai/ha, 0 to 100 scale, 0 is no effect, 100 is complete control
[17] = preemergence, 500 g ai/ha, 0 to 100 scale, 0 is no effect and 100 is complete control
[18] = 250 g ai/ha, scale of 0 to 100 where 0 is no effect and 100 is complete control, 13 to 15 days
[19] = 125 g ai/ha, visual rating, 0 to 100 scale, 0 no effect, 100 complete control, approximately 10 days, preemergence

O=C1NCC(c2ccccc2)C1(Br)C(=O)Nc1ccccc1F (stereo not drawn) [Compound 93, 3-bromo-N-(2-fluorophenyl)-2-oxo-4-phenyl-3-pyrrolidinecarboxamide]
Plant response rating, Rice [1, 4]: 10 | Plant response rating, Rice [1, 5]: 20 | Plant response rating, Rice [1, 6]: 20 | Plant response rating, Rice ([1]; 250 g ai/ha, scale 0 to 100): 30 | pest or weed control at 125 g/ha [2, 7]: 50% | pest or weed control at 500 g/ha [2, 8]: 80% | pest or weed control at 500 g/ha [2, 9]: 90% | Crabgrass, Large plant response rating ([2]; 125 g ai/ha): 90

O=C1NCC(c2ccc(F)c(Cl)c2)C1C(=O)Nc1ccccc1F (stereo not drawn) [Compound 60]
Plant response rating, Crabgrass, Large [2, 10]: 80 | Plant response rating, Crabgrass, Large [2, 11]: 90 | Crabgrass, Large plant response rating ([2]; 125 g ai/ha): 90 | Plant response rating, Crabgrass, Large [2, 12]: 90

CN1CC(c2cccc(C(F)(F)F)c2)C(C(=O)Nc2cccc(F)c2F)C1=O (stereo not drawn) [Compound 305]
Plant response rating, Kochia [3, 13]: 30 | Plant response rating, Kochia [3, 11]: 70 | Plant response rating, Kochia [3, 14]: 70 | Kochia plant response rating [3, 15]: 70

CC(C)c1cccc(C2CNC(=O)C2C(=O)Nc2cccc(F)c2F)c1 (stereo not drawn) [Compound 319]
Plant response rating, Kochia [3, 13]: 30 | Plant response rating, Kochia [3, 11]: 50 | Plant response rating, Kochia [3, 14]: 60 | Kochia plant response rating [3, 15]: 80

O=C1NCC(c2cccc(C(F)(F)F)c2)C1C(=O)Nc1ccc(F)c(F)c1F (stereo not drawn) [Compound 345]
Plant response rating, Kochia [3, 13]: 50 | Plant response rating, Kochia [3, 14]: 10 | Kochia plant response rating [3, 15]: 80

O=C1NCC(c2ccc(F)c(F)c2)C1C(=O)Nc1cccc(F)c1F (racemic) [Compound 101]
Plant response rating, Rice [1, 6]: 0 | Plant response rating, Rice ([1]; 250 g ai/ha, scale 0 to 100): 0 | Plant response rating, Rice ([1]; 500 g ai/ha, scale 0 to 100): 0 | Plant response rating, Rice ([1]; 1000 g ai/ha, scale 0 to 100): 10 | Plant response rating, Crabgrass, Large [2, 10]: 80 | Plant response rating, Crabgrass, Large [2, 11]: 80 | Crabgrass, Large plant response rating ([2]; 125 g ai/ha): 90 | Plant response rating, Crabgrass, Large [2, 12]: 100

Cc1c(F)cccc1NC(=O)C1C(=O)NCC1c1ccc(F)c(F)c1 (racemic) [Compound 106]
Plant response rating, Crabgrass, Large ([2]; Postemergence, 1000 g ai/ha, 0 to 100 scale (0 no effect, 100 complete control)): 90 | Plant response rating, Crabgrass, Large ([2]; preemergence, 1000 g ai/ha, 0 to 100 scale): 90

Cc1ccccc1NC(=O)C1C(=O)NCC1c1cccc(C(F)(F)F)c1 (racemic) [Compound 109]
Plant response rating, Kochia [3, 10]: 0 | Plant response rating, Kochia [3, 11]: 0 | Kochia plant response rating ([3]; Preemergence, 125 g ai/ha, visual rating on 0 to 100 scale (0 no effect, 100 complete control)): 0 | Plant response rating, Kochia [3, 12]: 0

O=C1NCC(c2cc(F)c(F)c(F)c2)C1C(=O)Nc1cccc(F)c1F (stereo not drawn) [Compound 48]
Plant response rating, Crabgrass, Large [2, 10]: 80 | Plant response rating, Crabgrass, Large [2, 11]: 80 | Crabgrass, Large plant response rating ([2]; 125 g ai/ha): 90 | Plant response rating, Crabgrass, Large [2, 12]: 90

O=C1NCC(c2ccc(C(F)(F)F)cc2)C1C(=O)Nc1ccccc1F (stereo not drawn) [Compound 79, N-(2-fluorophenyl)-2-oxo-4-[4-(trifluoromethyl)phenyl]-3-pyrrolidinecarboxamide]
pest or weed control at 125 g/ha [2, 7]: 80% | pest or weed control at 500 g/ha [2, 8]: 90% | pest or weed control at 500 g/ha [2, 9]: 90% | Crabgrass, Large plant response rating ([2]; 125 g ai/ha): 90

O=C1NCC(c2cc(F)cc(F)c2)C1C(=O)Nc1ccccc1Cl (racemic) [Compound 280]
Plant response rating, Kochia [3, 16]: 0 | Plant response rating, Kochia [3, 11]: 0 | Plant response rating, Kochia [3, 14]: 0 | Plant response rating, Kochia [3, 17]: 0

O=C1NCC(c2cccc(OC(F)F)c2)C1C(=O)Nc1ccccc1F (stereo not drawn) [Compound 323]
Plant response rating, Rice [1, 4]: 0 | Plant response rating, Rice [1, 5]: 0 | Plant response rating, Rice [1, 6]: 0 | Plant response rating, Rice [1, 18]: 30 | Plant response rating, Kochia [3, 13]: 40 | Plant response rating, Kochia [3, 11]: 90 | Plant response rating, Kochia [3, 14]: 50 | Kochia plant response rating [3, 15]: 80

O=C1NCC(Br)(c2ccccc2)C1C(=O)Nc1ccccc1F (stereo not drawn) [Compound 92, 4-bromo-N-(2-fluorophenyl)-2-oxo-4-phenyl-3-pyrrolidinecarboxamide]
Plant response rating, Rice [1, 4]: 10 | Plant response rating, Rice [1, 5]: 10 | Plant response rating, Rice [1, 6]: 20 | Plant response rating, Rice ([1]; 250 g ai/ha, scale 0 to 100): 20 | pest or weed control at 125 g/ha [2, 7]: 20% | pest or weed control at 500 g/ha [2, 8]: 70% | pest or weed control at 500 g/ha [2, 9]: 90% | Crabgrass, Large plant response rating ([2]; 125 g ai/ha): 80

O=C1NCCC1C(=O)N(c1ccc(F)c(F)c1)c1ccccc1F (stereo not drawn) [Compound 5, N-(3,4-difluorophenyl)-N-(2-fluorophenyl)-2-oxo-3-pyrrolidinecarboxamide]
Plant response rating, Rice [1, 5]: 0 | Plant response rating, Rice [1, 6]: 0 | Plant response rating, Rice ([1]; 250 g ai/ha, scale 0 to 100): 0 | pest or weed control at 125 g/ha [2, 7]: 70% | pest or weed control at 500 g/ha [2, 8]: 80% | pest or weed control at 500 g/ha [2, 9]: 90% | Crabgrass, Large plant response rating ([2]; 125 g ai/ha): 80

CN1CC(c2ccc(F)c(F)c2)C(C(=O)Nc2cccc(F)c2F)C1=O (stereo not drawn) [Compound 303]
Plant response rating, Rice [1, 4]: 0 | Plant response rating, Rice [1, 5]: 0 | Plant response rating, Rice [1, 6]: 0 | Plant response rating, Rice [1, 18]: 0 | Plant response rating, Kochia [3, 13]: 50 | Plant response rating, Kochia [3, 11]: 80 | Plant response rating, Kochia [3, 14]: 70 | Kochia plant response rating [3, 15]: 80

O=C1NCC(c2ccc(F)cc2)C1C(=O)Nc1ccc(F)c(F)c1F (racemic) [Compound 120]
Plant response rating, Rice [1, 5]: 0 | Plant response rating, Rice [1, 6]: 0 | Plant response rating, Rice ([1]; 250 g ai/ha, scale 0 to 100): 0 | Plant response rating, Rice ([1]; 500 g ai/ha, scale 0 to 100): 0 | Plant response rating, Kochia [3, 19]: 60 | Plant response rating, Kochia [3, 10]: 60 | Kochia plant response rating (0 to 100 scale, 0 is no effect, 100 is complete control) ([3]; Postemergence, 500 g ai/ha): 70 | Plant response rating, Kochia [3, 12]: 80

O=C1NCC(c2ccc(Cl)cc2)C1C(=O)Nc1cccc(F)c1F (stereo not drawn) [Compound 218]
Plant response rating, Kochia [3, 19]: 30 | Plant response rating, Kochia [3, 16]: 50 | Kochia plant response rating (0 to 100 scale, 0 is no effect, 100 is complete control) ([3]; Postemergence, 500 g ai/ha): 60 | Plant response rating, Kochia [3, 17]: 70

CC(C)c1cccc(C2CNC(=O)C2C(=O)Nc2ccccc2F)c1 (stereo not drawn) [Compound 318]
Plant response rating, Rice [1, 4]: 0 | Plant response rating, Rice [1, 5]: 0 | Plant response rating, Rice [1, 6]: 10 | Plant response rating, Rice [1, 18]: 15 | Plant response rating, Kochia [3, 13]: 20 | Plant response rating, Kochia [3, 11]: 30 | Plant response rating, Kochia [3, 14]: 20 | Kochia plant response rating [3, 15]: 70

O=C1NCC(c2cccc(OC(F)F)c2)C1C(=O)Nc1cccc(F)c1F (stereo not drawn) [Compound 224]
Plant response rating, Rice [1, 4]: 0 | Plant response rating, Rice [1, 5]: 0 | Plant response rating, Rice [1, 6]: 0 | Plant response rating, Rice [1, 18]: 20 | Plant response rating, Kochia [3, 19]: 80 | Plant response rating, Kochia [3, 16]: 80 | Kochia plant response rating (0 to 100 scale, 0 is no effect, 100 is complete control) ([3]; Postemergence, 500 g ai/ha): 90 | Plant response rating, Kochia [3, 17]: 90

CN1CC(c2ccc(C(F)(F)F)cc2)C(C(=O)Nc2cccc(F)c2F)C1=O (stereo not drawn) [Compound 306]
Plant response rating, Kochia [3, 13]: 30 | Plant response rating, Kochia [3, 11]: 70 | Plant response rating, Kochia [3, 14]: 70 | Kochia plant response rating [3, 15]: 80

O=C1NCC(c2cccc(OC(F)(F)F)c2)C1C(=O)Nc1ccccc1F (stereo not drawn) [Compound 69]
Plant response rating, Crabgrass, Large [2, 10]: 70 | Plant response rating, Crabgrass, Large [2, 11]: 90 | Crabgrass, Large plant response rating ([2]; 125 g ai/ha): 90 | Plant response rating, Crabgrass, Large [2, 12]: 90

O=C1NCC(c2cccc(Br)c2)C1C(=O)Nc1ccc(F)c(F)c1F (stereo not drawn) [Compound 310]
Plant response rating, Kochia [3, 13]: 30 | Plant response rating, Kochia [3, 11]: 30 | Plant response rating, Kochia [3, 14]: 30 | Kochia plant response rating [3, 15]: 70

O=C1NCC(c2ccc(F)c(F)c2)C1C(=O)Nc1ccc(F)c(F)c1F (stereo not drawn) [Compound 346]
Plant response rating, Rice [1, 6]: 0 | Plant response rating, Rice [1, 18]: 0 | Plant response rating, Rice ([1]; 500 g ai/ha, scale 0 to 100): 0 | Plant response rating, Rice ([1]; 1000 g ai/ha, scale 0 to 100): 0 | Plant response rating, Kochia [3, 13]: 0 | Plant response rating, Kochia [3, 14]: 0 | Kochia plant response rating [3, 15]: 80

O=C1NCC(c2cccc(C(F)F)c2)C1C(=O)Nc1ccccc1F (racemic) [Compound 210]
Plant response rating, Rice [1, 6]: 0 | Plant response rating, Rice [1, 18]: 0 | Plant response rating, Rice ([1]; 500 g ai/ha, scale 0 to 100): 0 | Plant response rating, Rice ([1]; 1000 g ai/ha, scale 0 to 100): 0 | Plant response rating, Kochia [3, 19]: 0 | Plant response rating, Kochia [3, 16]: 20 | Kochia plant response rating (0 to 100 scale, 0 is no effect, 100 is complete control) ([3]; Postemergence, 500 g ai/ha): 60 | Plant response rating, Kochia [3, 17]: 30
